# Species: Mus musculus
# Experiment: Antidepressant activity was evaluated by measuring its ability to antagonize RO 4-1284-induced hypothermia in mice
# Format: functional
# Conditions: not given
row,SMILES,ED50 [mg/kg]
1,CNCCC=C1c2ccccc2CCc2ccccc21 [NORTRIPTYLINE],0.71
2,Cn1nc(-c2ccc(F)cc2)n(C)c1=S,0.61
3,Cn1nc(-c2ccccc2Cl)n(C)c1=S,0.37
4,Cn1nc(-c2ccc(Cl)cc2)nc1S,> 50
5,Cn1nc(-c2c(F)cccc2F)n(C)c1=S,0.44
6,Cn1nc(-c2cccc(C(F)(F)F)c2)n(C)c1=S,> 50
7,CNCCCC1c2ccccc2C=Cc2ccccc21 [PROTRIPTYLINE],0.14
8,Cn1nc(-c2ccccc2)n(C)c1=O,> 50
9,CCn1c(-c2ccccc2)nn(C)c1=S,0.58
10,CCCn1c(-c2ccc(Cl)cc2)nn(C)c1=S,> 12.5
11,Fc1ccc(-c2n[nH]c(S)n2)cc1,> 50
12,Cn1nc(-c2ccccc2F)n(C)c1=S,0.74
13,CN(C)CCC=C1c2ccccc2CCc2ccccc21 [AMITRIPTYLINE],0.36
14,Cn1c(S)nnc1-c1ccccc1F,> 25
15,Cc1ccc(-c2nn(C)c(=S)n2C)cc1,1.74
16,Cn1nc(-c2cccc(F)c2)n(C)c1=S [SURITOZOLE],0.37
17,CCn1nc(-c2ccc(Cl)cc2)n(C)c1=S,> 50
18,CCn1c(-c2ccc(Cl)cc2)nn(C)c1=S,> 50

# Species: Mus musculus
# Experiment: Antidepressant activity was evaluated by measuring its ability to antagonize reserpine-induced ptosis in mice
# Format: functional
# Conditions: not given
row,SMILES,ED50 [mg/kg]
1,CNCCC=C1c2ccccc2CCc2ccccc21 [NORTRIPTYLINE],4.85
2,Cn1nc(-c2ccc(F)cc2)n(C)c1=S,1
3,Cn1nc(-c2ccccc2Cl)n(C)c1=S,0.58
4,Cn1nc(-c2ccc(Cl)cc2)nc1S,> 200
5,Cn1nc(-c2c(F)cccc2F)n(C)c1=S,0.36
6,Cn1nc(-c2cccc(C(F)(F)F)c2)n(C)c1=S,> 200
7,CNCCCC1c2ccccc2C=Cc2ccccc21 [PROTRIPTYLINE],0.43
8,Cn1nc(-c2ccccc2)n(C)c1=O,> 200
9,CCn1c(-c2ccccc2)nn(C)c1=S,1.2
10,CCCn1c(-c2ccc(Cl)cc2)nn(C)c1=S,12.5
11,Fc1ccc(-c2n[nH]c(S)n2)cc1,> 200
12,Cn1nc(-c2ccccc2F)n(C)c1=S,0.23
13,CN(C)CCC=C1c2ccccc2CCc2ccccc21 [AMITRIPTYLINE],8.73
14,Cn1c(S)nnc1-c1ccccc1F,> 200
15,Cc1ccc(-c2nn(C)c(=S)n2C)cc1,4.2
16,Cn1nc(-c2cccc(F)c2)n(C)c1=S [SURITOZOLE],0.29
17,CCn1nc(-c2ccc(Cl)cc2)n(C)c1=S,100
18,CCn1c(-c2ccc(Cl)cc2)nn(C)c1=S,21.2

# System: not listed separately
# Experiment: Acute cytotoxicity was evaluated as LD50 in mice (ip)
# Format: organism-based
# Conditions: mouse, in vivo
row,SMILES,LD50 [mg/kg]
1,CNCCC=C1c2ccccc2CCc2ccccc21 [NORTRIPTYLINE],50
2,Cn1nc(-c2ccc(F)cc2)n(C)c1=S,200
3,Cn1nc(-c2ccccc2Cl)n(C)c1=S,200
4,Cn1nc(-c2ccc(Cl)cc2)nc1S,> 800
5,Cn1nc(-c2c(F)cccc2F)n(C)c1=S,400
6,Cn1nc(-c2cccc(C(F)(F)F)c2)n(C)c1=S,400
7,CNCCCC1c2ccccc2C=Cc2ccccc21 [PROTRIPTYLINE],50
8,Cn1nc(-c2ccccc2)n(C)c1=O,400
9,CCn1c(-c2ccccc2)nn(C)c1=S,400
10,CCCn1c(-c2ccc(Cl)cc2)nn(C)c1=S,200
11,Fc1ccc(-c2n[nH]c(S)n2)cc1,400
12,Cn1nc(-c2ccccc2F)n(C)c1=S,400
13,CN(C)CCC=C1c2ccccc2CCc2ccccc21 [AMITRIPTYLINE],100
14,Cn1c(S)nnc1-c1ccccc1F,> 800
15,Cc1ccc(-c2nn(C)c(=S)n2C)cc1,400
16,Cn1nc(-c2cccc(F)c2)n(C)c1=S [SURITOZOLE],200
17,CCn1nc(-c2ccc(Cl)cc2)n(C)c1=S,400
18,CCn1c(-c2ccc(Cl)cc2)nn(C)c1=S,> 800

# Biological target: T1, Amine oxidase [flavin-containing] B (Rattus norvegicus, UniProt P19643)
# T1 sequence (P19643 whole entry): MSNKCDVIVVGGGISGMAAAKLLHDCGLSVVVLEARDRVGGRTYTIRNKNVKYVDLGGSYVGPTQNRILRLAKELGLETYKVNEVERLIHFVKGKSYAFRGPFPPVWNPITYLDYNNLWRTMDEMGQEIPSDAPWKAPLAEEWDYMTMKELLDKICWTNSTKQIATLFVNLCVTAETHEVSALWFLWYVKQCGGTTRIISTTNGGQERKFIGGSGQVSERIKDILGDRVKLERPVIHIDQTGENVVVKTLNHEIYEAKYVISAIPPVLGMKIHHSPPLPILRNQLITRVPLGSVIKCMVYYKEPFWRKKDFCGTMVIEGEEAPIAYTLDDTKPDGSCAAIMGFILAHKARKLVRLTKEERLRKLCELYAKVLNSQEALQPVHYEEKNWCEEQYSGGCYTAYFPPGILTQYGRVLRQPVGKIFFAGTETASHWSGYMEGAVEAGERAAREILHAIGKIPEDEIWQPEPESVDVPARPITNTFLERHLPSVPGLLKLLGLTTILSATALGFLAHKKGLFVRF
# Experiment: Concentration required to inhibit Monoamine oxidase B in rat brain using [14C]phenylethylamine
# Format: tissue-based
# Conditions: not given
row,SMILES,MAO-B activity (% of control) [%]
1,Cn1nc(-c2ccc(F)cc2)n(C)c1=S,90
2,Cn1nc(-c2c(F)cccc2F)n(C)c1=S,97
3,Cn1nc(-c2ccccc2F)n(C)c1=S,96
4,Cn1nc(-c2cccc(F)c2)n(C)c1=S [SURITOZOLE],96

# Biological target: T2, Amine oxidase [flavin-containing] A (Rattus norvegicus, UniProt P21396)
# T2 sequence (P21396 whole entry): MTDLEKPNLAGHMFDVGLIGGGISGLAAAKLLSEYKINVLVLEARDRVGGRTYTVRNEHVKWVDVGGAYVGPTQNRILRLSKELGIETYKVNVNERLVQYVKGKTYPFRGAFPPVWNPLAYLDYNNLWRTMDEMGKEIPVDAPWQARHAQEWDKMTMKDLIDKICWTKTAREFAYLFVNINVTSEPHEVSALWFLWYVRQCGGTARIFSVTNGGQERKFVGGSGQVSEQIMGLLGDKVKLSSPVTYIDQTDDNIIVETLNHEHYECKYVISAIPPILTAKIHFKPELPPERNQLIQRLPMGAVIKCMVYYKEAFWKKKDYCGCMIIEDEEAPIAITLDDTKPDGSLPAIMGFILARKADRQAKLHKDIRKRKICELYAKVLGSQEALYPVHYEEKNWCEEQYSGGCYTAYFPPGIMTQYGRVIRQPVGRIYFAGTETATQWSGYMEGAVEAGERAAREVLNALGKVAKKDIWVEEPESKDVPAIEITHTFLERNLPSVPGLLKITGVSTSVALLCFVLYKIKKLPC
# Experiment: Concentration required to inhibit Monoamine oxidase A activity in rat brain using [14C]5-HT
# Format: tissue-based
# Conditions: not given
row,SMILES,MAO-A activity remaining (% of control) [%]
1,Cn1nc(-c2ccc(F)cc2)n(C)c1=S,70
2,Cn1nc(-c2c(F)cccc2F)n(C)c1=S,104
3,Cn1nc(-c2ccccc2F)n(C)c1=S,72
4,Cn1nc(-c2cccc(F)c2)n(C)c1=S [SURITOZOLE],105

# Species: Rattus norvegicus
# Experiment: Concentration required to inhibit [3H]- NE(norepinephrine) uptake in to rat cortical synaptosomes
# Format: functional
# Design: scale not given: the % may be the effect or the level left
# Conditions: Brain
row,SMILES,Control [%]
1,Cn1nc(-c2ccc(F)cc2)n(C)c1=S,104
2,Cn1nc(-c2c(F)cccc2F)n(C)c1=S,105
3,Cn1nc(-c2cccc(F)c2)n(C)c1=S [SURITOZOLE],110

# Species: Rattus norvegicus
# Experiment: Concentration required to inhibit [3H]- NE(norepinephrine) uptake into rat cortical synaptosomes
# Format: functional
# Design: scale not given: the % may be the effect or the level left
# Conditions: Brain
row,SMILES,Control [%]
1,Cn1nc(-c2ccccc2F)n(C)c1=S,106
